How the values were obtained:
Type in all cases: cell-based, murine
[1] = test system: membrane-associated utrophin; experiment: Cell surface protein biotinylation and utrophin immunoblot, mdx myotubes; details: 5 μM, 48 hours
Experimental: (§1) Myotubes treated for 48 hrs were lysed using RIPA buffer (Thermo Fisher Scientific) containing Halt Protease Inhibitor Cocktail (Thermo Fisher Scientific). Cell lysates in RIPA buffer were rocked for 1 hr at 4° C. and centrifuged at 1,000 RPM for 30 mins at 4° C. The supernatant was collected, quantified for protein concentration using the DC protein assay (Bio-Rad), and normalized to 2 mg/ml in water and Laemmli sample buffer with a final concentration of 10% glycerol (Sigma-Aldrich), 5% beta-mercaptoethanol (Sigma-Aldrich), 3% sodium dodecyl sulfate (Sigma-Aldrich), and 0.05% bromophenol blue (Sigma-Aldrich). For SDS-PAGE, samples were heated to 95° C. for 2 mins before loading 40 μg onto 4-12% tris-glycine or bis-tris polyacrylamide gels (Novex), electrophoresed for 2 hrs at 100 volts at RT, and transferred to a nitrocellulose membrane for 2 hrs at 100 volts at 4° C. Ponceau S staining was performed to visualize protein loading and verify protein transfer. […] Autoradiography films were developed using a SRX-101A tabletop processor (Konica Minolta), scanned to a digital file, and analyzed by densitometry of bands using ImageJ version 1.51 s. […]

SSPN mRNA = experiment: SSPN gene expression in C2C12, H2K WT and H2K mdx myoblasts; details: 24 hours, 1, 5 and 10 μM
Experimental: FIG. 9. OT-9 is effective in multiple myoblast lines. […] Myoblasts were treated for 24 hours with 1, 5, and 10 μM of OT-9 or PC1-36. Gene expression was normalized to β-actin and vehicle-treated cells (0.1% DMSO). Data represents individual replicates and mean value. n=3-6. SSPN, sarcospan; R.U., relative units. *p<0.05, **p<0.01, ***p<0.001, ****p<0.0001.
RNA from myotubes treated for 48 hrs was extracted from cells using Trizol-based (Thermo Fisher Scientific) phase separation, Chomczynski et al., Biotechniques. 1993; 15(3):532-4, 6-7. RNA concentrations were determined using a NanoDrop 1000 (Thermo Fisher Scientific) and 750 ng of RNA in a 20 Id reaction was reverse transcribed using iScript cDNA synthesis (Bio-Rad) with the following cycling conditions: 25° C. for 5 mins, 42° C. for 30 mins, 85° C. for 5 mins. For mouse qPCR, SsoFast EvaGreen Supermix (Bio-Rad), 400 nM of each optimized forward and reverse primer (SSPN F: 5′ […] 3′, SSPN R: 5′ […] 3′, BACT F: 5′ […] 3′, BACT R: 5′ […] 3′), and cDNA corresponding to 37.5 ng RNA were used to amplify cDNA measured by QuantStudio 5 Real-Time PCR System (Thermo Fisher Scientific) with the following reaction conditions: 55° C. for 2 mins, 95° C. for 2 mins, 40 cycles of 95° C. for 10 seconds and 62° C. for 30 seconds, and dissociation stage. […]

[2] = test system: alpha-dystroglycan (α-DG) at the cell surface; experiment: Cell surface protein biotinylation and immunoblot, C2C12 myotubes; details: 5 μM, 48 hours
Experimental: as §1

SMILES: CCN(CC)c1ccc2cc(C(=O)Nc3ccc(C(=O)N4CCCCCC4)cc3)c(=O)oc2c1 [OT-9]
- increase in membrane-associated utrophin protein [1]: 1.6 fold
- SSPN mRNA levels in myoblasts (SSPN mRNA): increased SSPN mRNA levels in all myoblast lines
- increase of core α-DG at the cell surface [2]: 1.6 fold
- increase of glycosylated α-DG at the cell surface [2]: 1.8 fold

— US20230348394A1, “COMPOSITIONS AND METHODS FOR TREATING MUSCULAR DYSTROPHIES” (The Regents of the University of California, priority 2020, published 2023)
